Results as given in ChEMBL document CHEMBL1275533, “In vitro antibacterial activity of vertilmicin and its susceptibility to modifications by the recombinant AAC6'-APH2'' enzyme” (2008).
≈ marks a conversion by molar mass, not a printed value. Calls of active or inactive are those of the source. The calls are words filed in the database; no cut-off is given here.

How the values were obtained:
Klebsiella aerogenes = assay: Antibacterial activity against non-gentamicin-resistant Enterobacter aerogenes clinical isolate after 18 hrs by agar dilution method; format: functional
[1] = tested on: Staphylococcus epidermidis; assay: Antibacterial activity against non-gentamicin-resistant Staphylococcus epidermidis clinical isolate after 18 hrs by agar dilution method; format: functional
Staphylococcus aureus [2] = assay: Antibacterial activity against gentamicin-resistant Staphylococcus aureus clinical isolate assessed as susceptible isolates after 18 hrs by agar dilution method; format: functional
Escherichia coli [3] = assay: Antibacterial activity against non-gentamicin-resistant Escherichia coli clinical isolate after 18 hrs by agar dilution method; format: functional
Morganella morganii [4] = assay: Antibacterial activity against non-gentamicin-resistant Morganella morganii clinical isolate assessed as susceptible isolates after 18 hrs by agar dilution method; format: functional
Enterobacter cloacae [5] = assay: Antibacterial activity against gentamicin-resistant Enterobacter cloacae clinical isolate after 18 hrs by agar dilution method; format: functional
[6] = tested on: Escherichia coli BL21(DE3); assay: Acetylation activity of AAC(6')-APH(2'') in Escherichia coli BL21(DE3) assessed as production of free pyridine-4-thiolate
Enterobacter cloacae [7] = assay: Antibacterial activity against non-gentamicin-resistant Enterobacter cloacae clinical isolate after 18 hrs by agar dilution method; format: functional
Escherichia coli [8] = assay: Antibacterial activity against gentamicin-resistant Escherichia coli clinical isolate after 18 hrs by agar dilution method; format: functional
Enterococcus faecalis = assay: Antibacterial activity against gentamicin-resistant Enterococcus faecalis clinical isolate assessed as susceptible isolates after 18 hrs by agar dilution method; format: functional, organism-based
Citrobacter koseri [9] = assay: Antibacterial activity against gentamicin-resistant Citrobacter diversus clinical isolate assessed as susceptible isolates after 18 hrs by agar dilution method; format: functional
Klebsiella pneumoniae [10] = assay: Antibacterial activity against gentamicin-resistant Klebsiella pneumoniae clinical isolate after 18 hrs by agar dilution method; format: functional
Citrobacter koseri [11] = assay: Antibacterial activity against gentamicin-resistant Citrobacter diversus clinical isolate after 18 hrs by agar dilution method; format: functional
Pseudomonas sp. [12] = assay: Antibacterial activity against gentamicin-resistant Pseudomonas spp. clinical isolate assessed as susceptible isolates after 18 hrs by agar dilution method; format: functional
Staphylococcus aureus [13] = assay: Antibacterial activity against non-gentamicin-resistant Staphylococcus aureus clinical isolate after 18 hrs by agar dilution method; format: functional
Escherichia coli [14] = assay: Antibacterial activity against gentamicin-resistant Escherichia coli clinical isolate assessed as susceptible isolates after 18 hrs by agar dilution method; format: functional
Providencia rettgeri [15] = assay: Antibacterial activity against gentamicin-resistant Proteus rettgeri clinical isolate assessed as susceptible isolates after 18 hrs by agar dilution method; format: functional
Staphylococcus aureus [16] = assay: Antibacterial activity against non-gentamicin-resistant Staphylococcus aureus clinical isolate assessed as susceptible isolates after 18 hrs by agar dilution method; format: functional
Klebsiella pneumoniae [17] = assay: Antibacterial activity against gentamicin-resistant Klebsiella pneumoniae clinical isolate assessed as susceptible isolates after 18 hrs by agar dilution method; format: functional
Klebsiella pneumoniae [18] = assay: Antibacterial activity against non-gentamicin-resistant Klebsiella pneumoniae clinical isolate assessed as susceptible isolates after 18 hrs by agar dilution method; format: functional
[19] = tested on: Staphylococcus epidermidis; assay: Antibacterial activity against non-gentamicin-resistant Staphylococcus epidermidis clinical isolate assessed as susceptible isolates after 18 hrs by agar dilution method; format: functional
Serratia marcescens [20] = assay: Antibacterial activity against non-gentamicin-resistant Serratia marcescens clinical isolate after 18 hrs by agar dilution method; format: functional
Pseudomonas sp. [21] = assay: Antibacterial activity against gentamicin-resistant Pseudomonas spp. clinical isolate after 18 hrs by agar dilution method; format: functional
Pseudomonas sp. [22] = assay: Antibacterial activity against non-gentamicin-resistant Pseudomonas spp. clinical isolate assessed as susceptible isolates after 18 hrs by agar dilution method; format: functional
Serratia marcescens [23] = assay: Antibacterial activity against non-gentamicin-resistant Serratia marcescens clinical isolate assessed as susceptible isolates after 18 hrs by agar dilution method; format: functional
[24] = tested on: Acinetobacter calcoaceticus; assay: Antibacterial activity against non-gentamicin-resistant Acinetobacter calcoaceticus clinical isolate after 18 hrs by agar dilution method; format: functional
Providencia rettgeri [25] = assay: Antibacterial activity against gentamicin-resistant Proteus rettgeri clinical isolate after 18 hrs by agar dilution method; format: functional
[26] = tested on: Acinetobacter calcoaceticus; assay: Antibacterial activity against non-gentamicin-resistant Acinetobacter calcoaceticus clinical isolate assessed as susceptible isolates after 18 hrs by agar dilution method; format: functional
Pseudomonas aeruginosa = assay: Antibacterial activity against non-gentamicin-resistant Pseudomonas aeruginosa clinical isolate assessed as susceptible isolates after 18 hrs by agar dilution method; format: functional
Proteus mirabilis [27] = assay: Antibacterial activity against non-gentamicin-resistant Proteus mirabilis clinical isolate assessed as susceptible isolates after 18 hrs by agar dilution method; format: functional
Providencia rettgeri [28] = assay: Antibacterial activity against non-gentamicin-resistant Proteus rettgeri clinical isolate assessed as susceptible isolates after 18 hrs by agar dilution method; format: functional
[29] = tested on: Haemophilus parainfluenzae; assay: Antibacterial activity against non-gentamicin-resistant Haemophilus parainfluenzae clinical isolate assessed as susceptible isolates after 18 hrs by agar dilution method; format: functional, organism-based
Morganella morganii [30] = assay: Antibacterial activity against non-gentamicin-resistant Morganella morganii clinical isolate after 18 hrs by agar dilution method; format: functional
Serratia marcescens [31] = assay: Antibacterial activity against gentamicin-resistant Serratia marcescens clinical isolate assessed as susceptible isolates after 18 hrs by agar dilution method; format: functional
Morganella morganii [32] = assay: Antibacterial activity against gentamicin-resistant Morganella morganii clinical isolate after 18 hrs by agar dilution method; format: functional
Morganella morganii [33] = assay: Antibacterial activity against gentamicin-resistant Morganella morganii clinical isolate assessed as susceptible isolates after 18 hrs by agar dilution method; format: functional
Staphylococcus aureus [34] = assay: Antibacterial activity against gentamicin-resistant Staphylococcus aureus clinical isolate after 18 hrs by agar dilution method; format: functional
Citrobacter freundii = assay: Antibacterial activity against non-gentamicin-resistant Citrobacter freundii clinical isolate after 18 hrs by agar dilution method; format: functional
[35] = tested on: Staphylococcus epidermidis; assay: Antibacterial activity against gentamicin-resistant Staphylococcus epidermidis clinical isolate after 18 hrs by agar dilution method; format: functional
[36] = tested on: Acinetobacter calcoaceticus; assay: Antibacterial activity against gentamicin-resistant Acinetobacter calcoaceticus clinical isolate assessed as susceptible isolates after 18 hrs by agar dilution method; format: functional
Providencia rettgeri [37] = assay: Antibacterial activity against non-gentamicin-resistant Proteus rettgeri clinical isolate after 18 hrs by agar dilution method; format: functional
Serratia marcescens [38] = assay: Antibacterial activity against gentamicin-resistant Serratia marcescens clinical isolate after 18 hrs by agar dilution method; format: functional
[39] = tested on: Staphylococcus epidermidis; assay: Antibacterial activity against gentamicin-resistant Staphylococcus epidermidis clinical isolate assessed as susceptible isolates after 18 hrs by agar dilution method; format: functional
[40] = tested on: Haemophilus parainfluenzae; assay: Antibacterial activity against non-gentamicin-resistant Haemophilus parainfluenzae clinical isolate after 18 hrs by agar dilution method; format: functional
[41] = tested on: Acinetobacter calcoaceticus; assay: Antibacterial activity against gentamicin-resistant Acinetobacter calcoaceticus clinical isolate after 18 hrs by agar dilution method; format: functional
Proteus mirabilis [42] = assay: Antibacterial activity against non-gentamicin-resistant Proteus mirabilis clinical isolate after 18 hrs by agar dilution method; format: functional

CCN[C@@H]1C[C@H](N)[C@@H](O[C@@H]2OC(C(C)N)=CC[C@@H]2N)[C@H](O)[C@H]1O[C@H]1OC[C@](C)(O)[C@H](NC)[C@H]1O (stereo not given in full) [VERTILMICIN]
MIC50 (Klebsiella aerogenes): 0.5 µg/mL (≈ 1.02 µM) | MIC90 (Klebsiella aerogenes): 2 µg/mL (≈ 4.08 µM) | MIC50 [1]: 0.125 µg/mL (≈ 0.255 µM) | MIC90 [1]: 1 µg/mL (≈ 2.04 µM) | Activity (Staphylococcus aureus [2]): 83.3% | MIC50 (Escherichia coli [3]): 0.5 µg/mL (≈ 1.02 µM) | MIC90 (Escherichia coli [3]): 0.5 µg/mL (≈ 1.02 µM) | Activity (Morganella morganii [4]): 100% | MIC50 (Enterobacter cloacae [5]): 32 µg/mL (≈ 65.4 µM) | MIC90 (Enterobacter cloacae [5]): > 128 µg/mL | Km [6]: 469 µM | MIC50 (Enterobacter cloacae [7]): 0.25 µg/mL (≈ 0.511 µM) | MIC90 (Enterobacter cloacae [7]): 0.5 µg/mL (≈ 1.02 µM) | MIC50 (Escherichia coli [8]): 8 µg/mL (≈ 16.3 µM) | MIC90 (Escherichia coli [8]): 64 µg/mL (≈ 131 µM) | Activity (Enterococcus faecalis): inactive | Activity (Citrobacter koseri [9]): 7.1% | MIC50 (Klebsiella pneumoniae [10]): 16 µg/mL (≈ 32.7 µM) | MIC90 (Klebsiella pneumoniae [10]): > 128 µg/mL | MIC50 (Citrobacter koseri [11]): 32 µg/mL (≈ 65.4 µM) | MIC90 (Citrobacter koseri [11]): > 128 µg/mL | Activity (Pseudomonas sp. [12]): 7.7% | MIC50 (Staphylococcus aureus [13]): 0.125 µg/mL (≈ 0.255 µM) | MIC90 (Staphylococcus aureus [13]): 2 µg/mL (≈ 4.08 µM) | Activity (Escherichia coli [14]): 68.4% | Activity (Providencia rettgeri [15]): 53.3% | Activity (Staphylococcus aureus [16]): 94.8% | Activity (Klebsiella pneumoniae [17]): 32.1% | Activity (Klebsiella pneumoniae [18]): 97.6% | Activity [19]: 100% | MIC (Serratia marcescens [20]): 0.25 µg/mL (≈ 0.511 µM) | MIC50 (Serratia marcescens [20]): 0.25 µg/mL (≈ 0.511 µM) | MIC90 (Serratia marcescens [20]): 1 µg/mL (≈ 2.04 µM) | MIC50 (Pseudomonas sp. [21]): 128 µg/mL (≈ 261 µM) | MIC90 (Pseudomonas sp. [21]): > 128 µg/mL | Activity (Pseudomonas sp. [22]): 72.7% | Activity (Serratia marcescens [23]): 100% | MIC50 [24]: 1 µg/mL (≈ 2.04 µM) | MIC90 [24]: 2 µg/mL (≈ 4.08 µM) | MIC50 (Providencia rettgeri [25]): 8 µg/mL (≈ 16.3 µM) | MIC90 (Providencia rettgeri [25]): 64 µg/mL (≈ 131 µM) | Activity [26]: 93.8% | Activity (Pseudomonas aeruginosa): 78.7% | Activity (Proteus mirabilis [27]): 98.4% | Activity (Providencia rettgeri [28]): 92.3% | Activity [29]: inactive | MIC50 (Morganella morganii [30]): 1 µg/mL (≈ 2.04 µM) | MIC90 (Morganella morganii [30]): 2 µg/mL (≈ 4.08 µM) | Activity (Serratia marcescens [31]): 10% | MIC50 (Morganella morganii [32]): 8 µg/mL (≈ 16.3 µM) | MIC90 (Morganella morganii [32]): 32 µg/mL (≈ 65.4 µM) | Activity (Morganella morganii [33]): 50% | MIC50 (Staphylococcus aureus [34]): 4 µg/mL (≈ 8.17 µM) | MIC90 (Staphylococcus aureus [34]): 16 µg/mL (≈ 32.7 µM) | MIC50 (Citrobacter freundii): 0.5 µg/mL (≈ 1.02 µM) | MIC90 (Citrobacter freundii): 8 µg/mL (≈ 16.3 µM) | MIC50 [35]: 2 µg/mL (≈ 4.08 µM) | MIC90 [35]: 16 µg/mL (≈ 32.7 µM) | Activity [36]: 24% | MIC50 (Providencia rettgeri [37]): 2 µg/mL (≈ 4.08 µM) | MIC90 (Providencia rettgeri [37]): 8 µg/mL (≈ 16.3 µM) | MIC50 (Serratia marcescens [38]): > 128 µg/mL | MIC90 (Serratia marcescens [38]): > 128 µg/mL | Activity [39]: 88.5% | MIC50 [40]: 1 µg/mL (≈ 2.04 µM) | MIC90 [40]: 2 µg/mL (≈ 4.08 µM) | MIC50 [41]: 128 µg/mL (≈ 261 µM) | MIC90 [41]: > 128 µg/mL | MIC50 (Proteus mirabilis [42]): 1 µg/mL (≈ 2.04 µM) | MIC90 (Proteus mirabilis [42]): 2 µg/mL (≈ 4.08 µM)
